Assay results from patent US20250243196A1, “CITRON KINASE INHIBITORS” (The Cleveland Clinic Foundation, priority 2021, published 2025).

Legend:
Assay in all cases: KinaseProfiler panel
Format in all cases: biochemical
Design in all cases: dose or concentration left out as unconfirmed
Settings in all cases: activity remaining
GCK(h) = GCK(h) (Homo sapiens (Human), UniProt Q12851)
TrkC(h) = TrkC(h) (Homo sapiens (Human), UniProt Q16288)
SIK(h) = SIK(h) (Homo sapiens (Human), UniProt P57059)
LOK(h) = LOK(h) (Homo sapiens (Human), UniProt O94804)
Met(h) = Met(h) (Homo sapiens (Human), UniProt P08581)
DCAMKL2(h) = DCAMKL2(h) (Homo sapiens (Human), UniProt Q8N568)
mTOR/FKBP12(h) = mTOR/FKBP12(h) (Homo sapiens (Human), UniProt P42345)
MYLK2(h) = MYLK2(h) (Homo sapiens (Human), UniProt Q9H1R3)
MEK1(h) = MEK1(h) (Homo sapiens (Human), UniProt Q02750)
CDKL3(h) = CDKL3(h) (Homo sapiens (Human), UniProt Q8IVW4)
Ron(h) = Ron(h) (Homo sapiens (Human), UniProt Q04912)
IKKε(h) = IKKε(h) (Homo sapiens (Human), UniProt Q14164)
ZIPK(h) = ZIPK(h) (Homo sapiens (Human), UniProt O43293)
TSSK4(h) = TSSK4(h) (Homo sapiens (Human), UniProt Q6SA08)
DDR2(h) = DDR2(h) (Homo sapiens (Human), UniProt Q16832)
PKCα(h) = PKCα(h) (Homo sapiens (Human), UniProt P17252)
SRPK1(h) = SRPK1(h) (Homo sapiens (Human), UniProt Q96SB4)
DCAMKL3(h) = DCAMKL3(h) (Homo sapiens (Human), UniProt Q9C098)
PAK5(h) = PAK5(h) (Homo sapiens (Human), UniProt Q9P286)
MLK1(h) = MLK1(h) (Homo sapiens (Human), UniProt P80192)
CHK1(h) = CHK1(h) (Homo sapiens (Human), UniProt O14757)
PIP4K2a(h) = PIP4K2a(h) (Homo sapiens (Human), UniProt P48426)
TAO3(h) = TAO3(h) (Homo sapiens (Human), UniProt Q9H2K8)
PrKX(h) = PrKX(h) (Homo sapiens (Human), UniProt P51817)
TAO1(h) = TAO1(h) (Homo sapiens (Human), UniProt Q7L7X3)
CHK2(h) = CHK2(h) (Homo sapiens (Human), UniProt O96017)
ZAK(h) = ZAK(h) (Homo sapiens (Human), UniProt Q9NYL2)
SBK1(h) = SBK1(h) (Homo sapiens (Human), UniProt Q52WX2)
CDK4/cyclinD3(h) = CDK4/cyclinD3(h) (Homo sapiens (Human), UniProt P11802)
ROCK-II(h) = ROCK-II(h) (Homo sapiens (Human), UniProt O75116)
SNRK(h) = SNRK(h) (Homo sapiens (Human), UniProt Q9NRH2)
PhKγ2(h) = PhKγ2(h) (Homo sapiens (Human), UniProt P15735)
JAK1(h) = JAK1(h) (Homo sapiens (Human), UniProt P23458)

Sequence of CHK1(h) (O14757 whole entry): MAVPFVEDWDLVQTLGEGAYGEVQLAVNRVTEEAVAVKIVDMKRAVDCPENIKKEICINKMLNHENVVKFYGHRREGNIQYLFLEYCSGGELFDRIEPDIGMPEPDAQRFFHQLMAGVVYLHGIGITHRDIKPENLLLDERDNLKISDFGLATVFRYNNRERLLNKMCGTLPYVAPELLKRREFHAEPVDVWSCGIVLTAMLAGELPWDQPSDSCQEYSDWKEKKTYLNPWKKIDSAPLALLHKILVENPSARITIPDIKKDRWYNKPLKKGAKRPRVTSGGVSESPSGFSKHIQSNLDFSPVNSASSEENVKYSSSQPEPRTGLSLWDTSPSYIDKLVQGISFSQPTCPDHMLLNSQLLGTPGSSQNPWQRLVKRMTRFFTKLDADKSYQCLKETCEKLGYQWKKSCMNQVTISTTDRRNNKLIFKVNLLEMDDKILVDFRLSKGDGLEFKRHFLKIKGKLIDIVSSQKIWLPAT
Sequence of Met(h) (P08581 25-1390): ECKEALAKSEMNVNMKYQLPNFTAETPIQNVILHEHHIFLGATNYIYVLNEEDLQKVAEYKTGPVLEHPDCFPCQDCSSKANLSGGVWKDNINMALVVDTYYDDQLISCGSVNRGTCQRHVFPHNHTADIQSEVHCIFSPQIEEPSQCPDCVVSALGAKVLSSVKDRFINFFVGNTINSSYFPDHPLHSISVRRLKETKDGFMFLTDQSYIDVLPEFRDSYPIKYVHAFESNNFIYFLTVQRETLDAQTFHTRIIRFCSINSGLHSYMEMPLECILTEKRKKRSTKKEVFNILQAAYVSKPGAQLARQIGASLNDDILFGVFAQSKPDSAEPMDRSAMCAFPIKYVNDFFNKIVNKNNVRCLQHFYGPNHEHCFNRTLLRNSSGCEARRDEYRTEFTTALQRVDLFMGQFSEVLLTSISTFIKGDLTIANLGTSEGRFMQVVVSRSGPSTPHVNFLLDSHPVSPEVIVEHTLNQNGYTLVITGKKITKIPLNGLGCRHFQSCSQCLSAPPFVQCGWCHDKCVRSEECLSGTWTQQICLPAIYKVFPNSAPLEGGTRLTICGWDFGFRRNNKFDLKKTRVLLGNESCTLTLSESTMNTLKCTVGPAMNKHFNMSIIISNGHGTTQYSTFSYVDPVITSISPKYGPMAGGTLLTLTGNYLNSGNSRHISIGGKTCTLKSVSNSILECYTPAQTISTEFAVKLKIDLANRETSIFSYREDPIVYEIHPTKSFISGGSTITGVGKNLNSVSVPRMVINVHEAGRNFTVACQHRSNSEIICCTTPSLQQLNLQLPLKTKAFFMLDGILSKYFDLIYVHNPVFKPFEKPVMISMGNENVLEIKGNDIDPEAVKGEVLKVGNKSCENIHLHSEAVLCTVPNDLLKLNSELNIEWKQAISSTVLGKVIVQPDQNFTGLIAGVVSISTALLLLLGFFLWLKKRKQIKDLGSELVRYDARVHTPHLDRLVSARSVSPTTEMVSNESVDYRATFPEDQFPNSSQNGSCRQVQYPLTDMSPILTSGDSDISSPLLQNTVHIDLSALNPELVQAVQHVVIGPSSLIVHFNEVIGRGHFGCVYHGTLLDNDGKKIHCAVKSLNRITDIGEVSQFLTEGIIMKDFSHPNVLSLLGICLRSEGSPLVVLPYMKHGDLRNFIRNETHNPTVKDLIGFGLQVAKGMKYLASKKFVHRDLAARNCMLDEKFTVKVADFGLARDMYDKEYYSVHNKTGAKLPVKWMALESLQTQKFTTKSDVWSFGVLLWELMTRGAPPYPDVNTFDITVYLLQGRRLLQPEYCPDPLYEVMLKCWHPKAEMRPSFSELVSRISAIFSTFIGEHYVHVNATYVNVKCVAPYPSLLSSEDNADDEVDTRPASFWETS
Sequence of ZIPK(h) (O43293 whole entry): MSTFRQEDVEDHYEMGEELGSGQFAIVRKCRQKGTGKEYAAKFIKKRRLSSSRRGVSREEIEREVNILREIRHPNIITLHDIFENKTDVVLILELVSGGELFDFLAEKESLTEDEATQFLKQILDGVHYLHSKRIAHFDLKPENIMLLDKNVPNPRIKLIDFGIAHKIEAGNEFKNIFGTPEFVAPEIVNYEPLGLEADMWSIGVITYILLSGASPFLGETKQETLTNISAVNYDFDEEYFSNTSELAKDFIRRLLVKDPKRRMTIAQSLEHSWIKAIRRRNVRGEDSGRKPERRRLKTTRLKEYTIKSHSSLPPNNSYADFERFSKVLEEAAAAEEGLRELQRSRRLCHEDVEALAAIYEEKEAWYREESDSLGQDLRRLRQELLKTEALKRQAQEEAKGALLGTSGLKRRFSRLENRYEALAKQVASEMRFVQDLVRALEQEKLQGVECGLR
Sequence of MYLK2(h) (Q9H1R3 whole entry): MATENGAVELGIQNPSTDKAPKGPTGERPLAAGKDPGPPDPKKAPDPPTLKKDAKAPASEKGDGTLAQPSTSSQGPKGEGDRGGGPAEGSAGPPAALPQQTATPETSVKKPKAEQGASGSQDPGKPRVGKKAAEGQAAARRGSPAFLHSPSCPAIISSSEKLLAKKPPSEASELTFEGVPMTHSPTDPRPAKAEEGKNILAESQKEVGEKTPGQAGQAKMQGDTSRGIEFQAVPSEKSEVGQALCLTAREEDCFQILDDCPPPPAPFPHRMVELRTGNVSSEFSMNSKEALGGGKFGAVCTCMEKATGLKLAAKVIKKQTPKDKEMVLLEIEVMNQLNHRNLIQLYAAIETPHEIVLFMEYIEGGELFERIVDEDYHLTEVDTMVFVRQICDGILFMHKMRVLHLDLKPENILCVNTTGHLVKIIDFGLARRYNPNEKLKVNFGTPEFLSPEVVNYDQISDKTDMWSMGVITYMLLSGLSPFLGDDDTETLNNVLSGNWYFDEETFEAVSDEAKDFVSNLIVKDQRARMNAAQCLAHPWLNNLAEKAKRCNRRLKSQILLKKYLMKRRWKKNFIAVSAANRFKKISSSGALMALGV
Sequence of DDR2(h) (Q16832 22-855): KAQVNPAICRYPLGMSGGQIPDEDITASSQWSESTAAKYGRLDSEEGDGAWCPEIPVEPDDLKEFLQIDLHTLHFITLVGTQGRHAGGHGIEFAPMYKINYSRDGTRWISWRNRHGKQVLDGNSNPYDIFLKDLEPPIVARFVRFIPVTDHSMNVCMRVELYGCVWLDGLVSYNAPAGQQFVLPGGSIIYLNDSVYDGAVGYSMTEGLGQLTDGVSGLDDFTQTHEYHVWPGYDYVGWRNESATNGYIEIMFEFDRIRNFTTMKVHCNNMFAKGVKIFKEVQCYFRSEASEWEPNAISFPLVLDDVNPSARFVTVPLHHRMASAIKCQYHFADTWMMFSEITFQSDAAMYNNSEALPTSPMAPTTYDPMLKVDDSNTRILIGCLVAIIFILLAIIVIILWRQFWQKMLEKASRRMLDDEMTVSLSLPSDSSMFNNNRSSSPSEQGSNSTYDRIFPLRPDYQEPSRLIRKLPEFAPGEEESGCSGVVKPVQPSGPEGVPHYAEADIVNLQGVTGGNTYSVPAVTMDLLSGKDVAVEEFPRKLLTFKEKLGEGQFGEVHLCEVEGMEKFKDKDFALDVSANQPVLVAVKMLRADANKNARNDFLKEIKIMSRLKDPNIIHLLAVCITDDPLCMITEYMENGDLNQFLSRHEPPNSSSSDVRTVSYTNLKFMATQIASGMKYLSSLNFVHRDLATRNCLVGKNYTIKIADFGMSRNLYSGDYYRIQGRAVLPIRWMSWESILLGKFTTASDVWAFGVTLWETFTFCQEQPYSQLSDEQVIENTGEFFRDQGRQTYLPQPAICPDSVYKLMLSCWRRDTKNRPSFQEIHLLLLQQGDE
Sequence of CDKL3(h) (Q8IVW4 whole entry): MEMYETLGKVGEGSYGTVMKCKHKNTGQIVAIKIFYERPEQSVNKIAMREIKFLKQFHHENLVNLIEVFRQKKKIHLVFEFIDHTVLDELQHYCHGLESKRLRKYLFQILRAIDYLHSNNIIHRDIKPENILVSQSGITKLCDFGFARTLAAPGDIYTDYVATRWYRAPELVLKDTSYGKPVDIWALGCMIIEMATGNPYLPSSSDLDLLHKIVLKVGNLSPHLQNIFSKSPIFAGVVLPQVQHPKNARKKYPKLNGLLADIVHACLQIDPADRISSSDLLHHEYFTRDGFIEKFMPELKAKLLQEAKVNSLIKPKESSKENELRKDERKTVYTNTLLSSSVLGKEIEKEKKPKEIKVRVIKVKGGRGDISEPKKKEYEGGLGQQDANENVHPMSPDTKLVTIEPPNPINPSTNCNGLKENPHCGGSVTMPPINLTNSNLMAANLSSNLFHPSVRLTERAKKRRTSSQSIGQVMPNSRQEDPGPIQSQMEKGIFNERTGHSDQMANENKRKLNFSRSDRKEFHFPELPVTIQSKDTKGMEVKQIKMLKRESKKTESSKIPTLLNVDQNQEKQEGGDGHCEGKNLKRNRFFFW

For `Cc1cc2c(-c3ccc(NC(=O)[C@H](N)CC(C)(C)C)cc3C)ccnc2[nH]1` [Compound F-90, (2R)-2-Amino-4,4-dimethyl-N-[3-methyl-4-(2-methyl-1H-pyrrolo[2,3-b]pyridin-4-yl)phenyl]pentanamide], the “% Activity” value (GCK(h)) was 118%, the “% Activity” value (TrkC(h)) was 86% and the “% Activity” value (SIK(h)) was 105%. The “% Activity” value (LOK(h)) was 96%, the “% Activity” value (Met(h)) was 90% and the “% Activity” value (DCAMKL2(h)) was 104%. For the same molecule, the “% Activity” value (mTOR/FKBP12(h)) was 120%, the “% Activity” value (MYLK2(h)) was 76% and the “% Activity” value (MEK1(h)) was 101%. The “% Activity” value (CDKL3(h)) was 79%, the “% Activity” value (Ron(h)) was 111% and the “% Activity” value (IKKε(h)) was 87%. For the same molecule, the “% Activity” value (ZIPK(h)) was 94%, the “% Activity” value (TSSK4(h)) was 117% and the “% Activity” value (DDR2(h)) was 85%. For the same molecule, the “% Activity” value (PKCα(h)) was 92%, the “% Activity” value (SRPK1(h)) was 95% and the “% Activity” value (DCAMKL3(h)) was 86%. For the same molecule, the “% Activity” value (PAK5(h)) was 87%, the “% Activity” value (MLK1(h)) was 103% and the “% Activity” value (CHK1(h)) was 108%. For the same molecule, the “% Activity” value (PIP4K2a(h)) was 100%, the “% Activity” value (TAO3(h)) was 100% and the “% Activity” value (PrKX(h)) was 101%. The “% Activity” value (TAO1(h)) was 83%, the “% Activity” value (CHK2(h)) was 95% and the “% Activity” value (ZAK(h)) was 83%. The “% Activity” value (SBK1(h)) was 97%, the “% Activity” value (CDK4/cyclinD3(h)) was 74% and the “% Activity” value (ROCK-II(h)) was 96%. For the same molecule, the “% Activity” value (SNRK(h)) was 111%, the “% Activity” value (PhKγ2(h)) was 98% and the “% Activity” value (JAK1(h)) was 85%.
